Our source for the Ki values is publication PMC10385834, “Curcumin Stereoisomer, Cis-Trans Curcumin, as a Novel Ligand to A1 and A3 Adenosine Receptors” (Pharmaceuticals, 2023).

Test [1] has as its target T1, A1AR (A1 adenosine receptor) (Homo sapiens, UniProt P30542).
T1 construct: gene ADORA1
T1 sequence (P30542 1-326): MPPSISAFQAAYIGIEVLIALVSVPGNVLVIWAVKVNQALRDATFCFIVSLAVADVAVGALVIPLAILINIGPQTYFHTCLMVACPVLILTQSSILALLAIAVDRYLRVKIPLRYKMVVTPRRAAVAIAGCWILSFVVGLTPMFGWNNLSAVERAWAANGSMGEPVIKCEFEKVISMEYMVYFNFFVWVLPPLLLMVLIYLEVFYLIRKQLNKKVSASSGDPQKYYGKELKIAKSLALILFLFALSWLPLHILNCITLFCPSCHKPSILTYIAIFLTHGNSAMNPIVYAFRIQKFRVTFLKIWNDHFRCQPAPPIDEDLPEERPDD
The experiment in a line: competition with fluorescent ligand CA200623 on transfected CHO-K1 cells; confirmed by confocal microscopy. The test is classed as cell-based.

Test [2] concerns the target T2, A3AR (A3 adenosine receptor) (Homo sapiens, UniProt P0DMS8).
T2 construct: gene ADORA3
T2 sequence (P0DMS8 1-318): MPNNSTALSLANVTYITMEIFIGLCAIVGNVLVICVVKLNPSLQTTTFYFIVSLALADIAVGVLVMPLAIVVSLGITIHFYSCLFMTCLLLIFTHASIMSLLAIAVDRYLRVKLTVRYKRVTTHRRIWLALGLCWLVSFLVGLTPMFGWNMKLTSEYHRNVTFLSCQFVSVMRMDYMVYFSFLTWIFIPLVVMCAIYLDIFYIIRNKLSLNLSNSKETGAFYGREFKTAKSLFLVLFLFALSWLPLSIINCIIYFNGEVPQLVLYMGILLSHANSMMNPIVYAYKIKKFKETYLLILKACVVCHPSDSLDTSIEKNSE
Described as above. The test is classed as cell-based.

A word on the Ki: it is a measure of affinity in units of concentration, obtained from inhibition or displacement. Lower therefore signals a stronger hold on the target. `COc1cc(/C=C\C(=O)CC(=O)/C=C/c2ccc(O)c(OC)c2)ccc1O` [CTCUR, cis-trans curcumin]: the Ki in test [1] stood at 306 nM; in test [2], 400 nM.
